# Earlier results, collected in patent US8796326B1, “Fire ant killer (F.A.K.)/ insecticide” (priority 2008, dated 2014).
# Test system: bacterial contamination on the hands and on treated products
smiles,measurement,value
"Oc1cc(Cl)ccc1Oc1ccc(Cl)cc1Cl [Triclosan, 5-chloro-2-(2,4-dichlorophenoxy)phenol]",reducing and controlling bacterial contamination,effective
